In assay [1] the test system is MMP1 expression by activated primary synovial fibroblasts. Kind of assay: 'MMP assay': MMP1 expression by complex trigger activated synovial fibroblasts (MMP1 ELISA). Particulars: Homo sapiens, Fibroblast; Table 3; RASFs, complex trigger, 48 hrs, MMP1 ELISA. In kind it is cell-based. A general note: ELISA stands for enzyme-linked immunosorbent assay.
In assay [2] the test system is TNFα release by human PBMCs. Kind of assay: Cytokine release by LPS stimulated human PBMCs (TNFα ELISA). It is filed as cell-based. Particulars: PBMC, 24 h, Table 5, LPS 1 μg/mL.
Assay [3] deals with T1, MAPKAPK5 (Homo sapiens, UniProt Q8IW41).
T1 sequence (Q8IW41 1-471 isoform Q8IW41-2): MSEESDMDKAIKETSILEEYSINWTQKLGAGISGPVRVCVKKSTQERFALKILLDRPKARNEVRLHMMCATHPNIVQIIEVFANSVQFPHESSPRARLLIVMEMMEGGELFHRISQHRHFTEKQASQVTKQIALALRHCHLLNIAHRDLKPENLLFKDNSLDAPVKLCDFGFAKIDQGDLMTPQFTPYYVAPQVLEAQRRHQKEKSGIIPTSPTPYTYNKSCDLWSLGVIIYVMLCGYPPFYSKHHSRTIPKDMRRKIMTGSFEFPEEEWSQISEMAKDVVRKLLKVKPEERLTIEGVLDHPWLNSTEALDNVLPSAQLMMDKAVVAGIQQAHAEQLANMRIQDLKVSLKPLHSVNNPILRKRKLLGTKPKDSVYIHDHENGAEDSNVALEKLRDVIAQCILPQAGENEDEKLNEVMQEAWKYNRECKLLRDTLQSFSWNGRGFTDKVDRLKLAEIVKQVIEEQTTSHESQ
Kind of assay: MAPKAP-K5 assay (FlashPlate kinase assay).

Bounds are passed on as bounds.

As for `CNC(=O)c1nc(-c2cnc(Nc3ccc(N4CCN(C(C)C)CC4)cc3)c3ncnn23)cs1` [Compound 74], the EC50 in assay [1] and in assay [2] was above 1000 nM in each case. Also, the IC50 (commonly the concentration that inhibits the measured activity by half) in assay [3] was above 1000 nM.

On to `O=C1NCc2cc(-c3cnc(Nc4ccc(N5CCOCC5)cc4F)c4ncnn34)ccc21` [Compound 75], for which the concentration giving a half-maximal response (EC50) in assay [1] and in assay [2] was above 1000 nM in each case. The compound further displayed an IC50 in assay [3] above 1000 nM.

Regarding `O=C1NCc2cc(-c3cnc(Nc4ccc(N5CCOCC5)cc4Cl)c4ncnn34)ccc21` [Compound 76], the concentration for a half-maximal effect (EC50) (usually the concentration giving half of the maximal effect) is 501 to 1000 nM in assay [1] and above 1000 nM in assay [2]. This compound gave an IC50 in assay [3] above 1000 nM.

`CC(C)N1CCN(c2ccc(Nc3ncc(-c4ccc5c(c4)CNC5=O)n4ncnc34)c(Cl)c2)CC1` [Compound 77]: the concentration giving a half-maximal response (EC50) in assay [1] and in assay [2] was above 1000 nM each time. Moreover, in assay [3], the IC50 is 101 to 500 nM.

As for `Nc1ncc(-c2cnc(Nc3ccc(N4CCOCC4)cc3)c3ncnn23)cn1` [Compound 78], the values for the 50% effective concentration (EC50) in assay [1] and in assay [2] were above 1000 nM and 501 to 1000 nM, respectively. The IC50 in assay [3] is above 1000 nM.

For `CC(C)N1CCN(c2ccc(Nc3ncc(-c4ccc5c(c4)CNC5=O)n4ncnc34)cn2)CC1` [Compound 79, 5-(8-(6-(4-Isopropylpiperazin-1-yl)pyridin-3-ylamino)-[1,2,4]triazolo[1,5-a]pyrazin-5-yl)isoindolin-1-one], the EC50 in assay [1] was 501 to 1000 nM; in assay [2] it was above 1000 nM. For the same compound, the IC50 in assay [3] fell in the range of 1 to 100 nM.

For the compound `CC(C)N1CCN(c2ccc(Nc3ncc(-c4csc5c(C(N)=O)cccc45)n4ncnc34)cc2)CC1` [Compound 81, 3-{8-[4-(4-Isopropylpiperazin-1-yl)phenylamino]-[1,2,4]triazolo[1,5-a]pyrazin-5-yl}benzo[b]thiophene-7-carboxylic acid amide], the EC50 in assay [1] and in assay [2] was above 1000 nM in each case. The IC50 in assay [3] was above 1000 nM.

For `CC(C)N1CCC(c2ccc(Nc3ncc(-c4cn[nH]c4)n4ncnc34)cc2)CC1` [Compound 84, [4-(1-Isopropylpiperidin-4-yl)phenyl]-[5-(1H-pyrazol-4-yl)-[1,2,4]triazolo[1,5-a]pyrazin-8-yl]amine], the EC50 in assay [1] and in assay [2] was above 1000 nM each time. In assay [3], the IC50 fell in the range of 501 to 1000 nM.

Regarding `Nc1nc(-c2ccc(-c3cnc(Nc4ccc(N5CCOCC5)cc4)c4ncnn34)cc2)cs1` [Compound 85], the EC50 in assay [1] and in assay [2] was above 1000 nM each time. In assay [3], this compound displayed a half-maximal inhibitory concentration (IC50) above 1000 nM.

In the case of `CC(C)N1CCN(c2ccc(Nc3ncc(-c4coc(C(N)=O)c4)n4ncnc34)cn2)CC1` [Compound 86, 4-(8-(6-(4-Isopropylpiperazin-1-yl)pyridin-3-ylamino)-[1,2,4]triazolo[1,5-a]pyrazin-5-yl)furan-2-carboxamide], the EC50 in assay [1] and in assay [2] was above 1000 nM throughout. In addition, the IC50 in assay [3] was 1 to 100 nM.

Regarding `O=C1NCc2cc(-c3cnc(Nc4ccc(N5CCOCC5)nc4)c4ncnn34)ccc21` [Compound 87], the figures for the EC50 in assay [1] and in assay [2] were 101 to 500 nM and above 1000 nM, respectively. Besides, the IC50 in assay [3] was in the range of 1 to 100 nM.

On to `CC(C)N1CCC(c2ccc(Nc3ncc(-c4csc(C(N)=O)c4)n4ncnc34)cc2)CC1` [Compound 89, 4-{8-[4-(1-Isopropylpiperidin-4-yl)phenylamino]-[1,2,4]triazolo[1,5-a]pyrazin-5-yl}-thiophene-2-carboxylic acid amide], for which the results for the EC50 in assay [1] and in assay [2] were 501 to 1000 nM and above 1000 nM, respectively. In assay [3], this compound registered an IC50 of 1 to 100 nM.

`CC(C)N1CCN(c2ccc(Nc3ncc(-c4ccnc(CO)c4)n4ncnc34)cn2)CC1` [Compound 90, (4-{8-[6-(4-Isopropylpiperazin-1-yl)pyridin-3-ylamino]-[1,2,4]triazolo[1,5-a]pyrazin-5-yl}pyridin-2-yl)methanol]: the EC50 in assay [1] and in assay [2] was above 1000 nM throughout. For the same compound, the IC50 in assay [3] was above 1000 nM.

`CC(C)N1CCN(c2ccc(Nc3ncc(-c4ccnc(CF)c4)n4ncnc34)cc2)CC1` [Compound 91]: the EC50 in assay [1] and in assay [2] was above 1000 nM throughout. In addition, the half-inhibitory concentration (IC50) in assay [3] is above 1000 nM.

Turning to `CC(C)N1CCC(c2ccc(Nc3ncc(-c4ccc5c(c4)CNC5=O)n4ncnc34)cc2)CC1` [Compound 92, 5-{8-[4-(1-Isopropylpiperidin-4-yl)phenylamino]-[1,2,4]triazolo[1,5-a]pyrazin-5-yl}-2,3-dihydroisoindol-1-one], the EC50 is 101 to 500 nM in assay [1] and above 1000 nM in assay [2]. Also, in assay [3], the IC50 was in the range of 1 to 100 nM.

Regarding `NC(=O)c1cc(-c2cnc(Nc3ccc(N4CCOCC4)nc3)c3ncnn23)co1` [Compound 94], the EC50 in assay [1] and in assay [2] was above 1000 nM in each case. Besides, the IC50 in assay [3] lay within 1 to 100 nM.

Consider `O=C1NCc2cc(-c3cnc(Nc4cnc(N5CCOCC5)nc4)c4ncnn34)ccc21` [Compound 99], for which the results for the EC50 in assay [1] and in assay [2] were above 1000 nM and 501 to 1000 nM, respectively. In assay [3], this compound displayed an IC50 of 101 to 500 nM.

In the case of `CC(C)N1CCN(c2ncc(Nc3ncc(-c4ccc5c(c4)CNC5=O)n4ncnc34)cn2)CC1` [Compound 101], the concentration for a half-maximal effect (EC50) in assay [1] and in assay [2] was above 1000 nM each time. In assay [3], this compound displayed a half-maximal inhibitory concentration (IC50) of 101 to 500 nM.

As to `CC(C)(C)N1CCN(c2ccc(Nc3ncc(-c4ccc5c(c4)CNC5=O)n4ncnc34)cc2)CC1` [Compound 102, 5-{8-[4-(4-tert-Butyl-piperazin-1-yl)-phenylamino]-[1,2,4]triazolo[1,5-a]pyrazin-5-yl}-2,3-dihydro-isoindol-1-one], the EC50 in assay [1] and in assay [2] was above 1000 nM in each case. For the same compound, the 50% inhibitory concentration (IC50) in assay [3] lay in the range of 1 to 100 nM.

Consider `CC(C)(C)N1CCN(c2ccc(Nc3ncc(-c4cn[nH]c4)n4ncnc34)cc2)CC1` [Compound 103], for which the EC50 in assay [1] is 501 to 1000 nM; in assay [2], 101 to 500 nM. For the same compound, the IC50 in assay [3] fell in the range of 501 to 1000 nM.

Regarding `c1nc2c(Nc3ccc(N4CCOCC4)cc3)ncc(-c3ccc4[nH]ncc4c3)n2n1` [Compound 104], the EC50 in assay [1] and in assay [2] was above 1000 nM in each case. Further, the IC50 in assay [3] is above 1000 nM.

For `O=C1NCc2cc(-c3cnc(Nc4ccc(N5CCNCC5=O)cc4)c4ncnn34)ccc21` [Compound 105, 5-{8-[4-(2-Oxo-piperazin-1-yl)-phenylamino]-[1,2,4]triazolo[1,5-a]pyrazin-5-yl}-2,3-dihydro-isoindol-1-one], the EC50 in assay [1] and in assay [2] was above 1000 nM throughout. Moreover, the half-inhibitory concentration (IC50) in assay [3] was in the range of 1 to 100 nM.

Regarding `CC(C)N1CCN(c2ccc(Nc3ncc(-c4cc(F)c5c(c4)CNC5=O)n4ncnc34)cc2)CC1` [Compound 108, 7-Fluoro-5-{8-[4-(4-isopropylpiperazin-1-yl)-phenylamino]-[1,2,4]triazolo[1,5-a]pyrazin-5-yl}-2,3-dihydroisoindol-1-one], the half-maximal effective concentration (EC50) in assay [1] and in assay [2] was above 1000 nM throughout. The same compound showed an IC50 in assay [3] of 1 to 100 nM.

Turning to `CNCc1cc(Nc2ncc(-c3cn[nH]c3)n3ncnc23)ccc1N1CCOCC1` [Compound 110], the EC50 in assay [1] and in assay [2] was above 1000 nM throughout. Also, in assay [3], the half-inhibitory concentration (IC50) was above 1000 nM.

As for `O=C1NCc2cc(-c3cnc(Nc4ccc(N5CCOCC5)cc4)c4ncnn34)sc21` [Compound 113], the EC50 was 101 to 500 nM in assay [1] and above 1000 nM in assay [2]. The half-maximal inhibitory concentration (IC50) in assay [3] was 501 to 1000 nM.

For the compound `O=C1NCc2cc(-c3cnc(NC4CCCCC4)c4ncnn34)ccc21` [Compound 115], the 50% effective concentration (EC50) in assay [1] and in assay [2] was above 1000 nM each time. In assay [3], this compound came in with a half-maximal inhibitory concentration (IC50) of 101 to 500 nM.

On to `O=C1NCc2cc(-c3cnc(NC4CCOCC4)c4ncnn34)ccc21` [Compound 116], for which the EC50 in assay [1] and in assay [2] was above 1000 nM in each case. This compound also showed a half-maximal inhibitory concentration (IC50) in assay [3] above 1000 nM.

Turning to `O=C1NCc2cc(-c3cnc(Nc4ccc(F)cc4)c4ncnn34)ccc21` [Compound 117], the figures for the 50% effective concentration (EC50) in assay [1] and in assay [2] were 101 to 500 nM and above 1000 nM, respectively. This compound also returned an IC50 in assay [3] above 1000 nM.

Consider `NC(=O)CN1CCC(c2ccc(Nc3ncc(-c4cn[nH]c4)n4ncnc34)cc2)CC1` [Compound 169, 2-(4-{4-[5-(1H-Pyrazol-4-yl)-[1,2,4]triazolo[1,5-a]pyrazin-8-ylamino]phenyl}-piperidin-1-yl)acetamide], for which the EC50 in assay [1] and in assay [2] was above 1000 nM in each case. Besides, the half-maximal inhibitory concentration (IC50) in assay [3] lay within 501 to 1000 nM.

On to `CC(C)N1CCN(c2ccc(Nc3ncc(-c4ccc5c(c4)CNC5=O)n4ncnc34)cc2C(F)(F)F)CC1` [Compound 170, 5-{8-[4-(4-Isopropylpiperazin-1-yl)-3-trifluoromethylphenylamino]-[1,2,4]triazolo[1,5-a]pyrazin-5-yl}-2,3-dihydroisoindol-1-one], for which the concentration for a half-maximal effect (EC50) in assay [1] and in assay [2] was above 1000 nM each time. The compound also gave an IC50 in assay [3] of 101 to 500 nM.

Consider `CC(C)N1CCN(c2ccc(Nc3ncc(-c4cn[nH]c4)n4ncnc34)cc2C(F)(F)F)CC1` [Compound 171, [4-(4-Isopropylpiperazin-1-yl)-3-trifluoromethylphenyl]-[5-(1H-pyrazol-4-yl)-[1,2,4]triazolo[1,5-a]pyrazin-8-yl]amine], for which the EC50 in assay [1] was above 1000 nM; in assay [2], 501 to 1000 nM. This compound also displayed a concentration for half-maximal inhibition (IC50) in assay [3] above 1000 nM.

For `CC(C)N1CCC(c2ccc(Nc3ncc(-c4cn[nH]c4)n4ncnc34)cn2)CC1` [Compound 172], the half-maximal effective concentration (EC50) in assay [1] and in assay [2] was above 1000 nM in each case. This compound registered a half-inhibitory concentration (IC50) in assay [3] above 1000 nM.

(Values after US20100298300A1, “TRIAZOLOPYRAZINE COMPOUNDS USEFUL FOR THE TREATMENT OF DEGENERATIVE & INFLAMMATORY DISEASES” (priority 2006, published 2010).)
